Data reported in PMC9781444, “Pyridyl Methylsulfinyl Benzimidazole Derivatives as Promising Agents against Giardia lamblia and Trichomonas vaginalis” (Molecules, 2022).
Like-named read-outs stand apart in the source and are kept apart here. Each block holds one molecule with its values, some of them ahead of it.

Key:
TvG6PD::6PGL [1] = biological target: T1, TvG6PD::6PGL (Trichomonas vaginalis, UniProt A2DBT5); details: cited from earlier work
GlG6PD::6PGL [2] = biological target: T2, GlG6PD::6PGL (Giardia intestinalis, UniProt A8BWM5); test: GlG6PD::6PGL enzyme inactivation assay; assay type: biochemical, G. lamblia; details: for Inhibition (%) at 400 µM of GlG6PD::6PGL: 400 µM compound, 0.2 mg/mL enzyme, 37 °C, 2 h, relative to enzyme without inhibitor; for inhibition at 400 µM: read-out: Inhibition (%) at 400 µM of GlG6PD::6PGL; for kinact/KI: read-out: second-order inactivation rate constant k2, GlG6PD::6PGL
Description: (§1) The G6PD domain activity of the recombinant proteins was spectrophotometrically measured at 25 °C by monitoring the reduction in NADP^+ at 340 nm. The assay was performed with 1 mL of standard reaction mixture containing 0.1 M Tris-HCl, 0.01 M MgCl2, 1 mM NADP^+, and 1 mM glucose-6-phosphate (G6P) at pH 8.3. The reaction was initiated with the addition of 1 µg/mL fused GlG6PD::6PGL or TvG6PD::6PGL enzymes.
(§2) Inactivation assays were performed with the compounds against GlG6PD::6PGL and TvG6PD::6PGL. Thus, all the compounds were activate immediately before the experiments as previously reported and diluted using dimethyl sulfoxide (DMSO) as a solvent. For the assay, 0.2 mg/mL of the enzyme was incubated with the compounds at a concentration of 400 µM at 37 °C for 2 h. Following incubation, the activity was measured with a standard reaction mixture. Only the compounds that reduced the activity of the enzyme by more than 50% were used in the subsequent experiments.
(§3) Then, aliquots from these incubations were withdrawn, and the residual activity was determined under standard conditions. The results are reported as the percentage of residual activity (using the activity of each enzyme incubated without any compound as 100% activity) versus the compound’s concentration.
(§4) The second-order rate constants of inactivation for each one of the compounds were calculated by obtaining the pseudo-first-order rate constant (k1) values. Pseudo-first-order inactivation rate constants (k1) were obtained at four or five fixed concentrations for each of the compounds. At the indicated times, aliquots were withdrawn to determine residual activity. Then, residual activity data were fitted using the monoexponential decay equation, as previously reported. The previously obtained k1 values were replotted against the concentrations of each compound, and the slope created by these plots corresponds to the second-order inactivation constant k2 (M^−1·s^−1).

TvG6PD::6PGL [3] = biological target: T1, TvG6PD::6PGL; test: TvG6PD::6PGL enzyme inactivation assay; assay type: biochemical, T. vaginalis; details: for inhibition at 400 µM: read-out: Inhibition (%) at 400 µM of TvG6PD::6PGL, 400 µM compound, 0.2 mg/mL enzyme, 37 °C, 2 h, relative to enzyme without inhibitor; for kinact/KI: read-out: second-order inactivation rate constant k2, TvG6PD::6PGL, slope of k1 versus compound concentration
Description: as §1, §2, §3, §4

GlG6PD::6PGL [4] = biological target: T2, GlG6PD::6PGL; test: Circular dichroism of GlG6PD::6PGL with compounds; design: species or system G. lamblia; details: compound at IC50 concentration, 2 h, 37 °C, protein 0.5 mg/mL
Description: One control containing only enzyme was used in each assay. Then, the proteins were loaded in a quartz cell with a 0.1 cm path length, and spectral scans were recorded at 25 °C in ultraviolet circular dichroism (UV-CD) ranging from 200 to 260 nm. The spectra of the blanks (buffer P solution containing each of the compounds) were subtracted from all the obtained spectra that contained the protein. All the CD data were reported as molar ellipticity. The experiments were performed in triplicate.

GlG6PD::6PGL [5] = biological target: T2, GlG6PD::6PGL; test: Intrinsic fluorescence of GlG6PD::6PGL with compounds; design: species or system G. lamblia; details: compound at IC50 concentration, 2 h, 37 °C; for maximum intrinsic fluorescence intensity of GlG6PD::6PGL: control 874 a.u.
Description: (§5) The effect of the compounds on the tertiary structure (3D) of the GlG6PD::6PGL and TvG6PD::6PGL proteins was evaluated by monitoring the changes in the intrinsic and extrinsic fluorescence using a Perkin-Elmer LS-55 spectrofluorometer (Perkin-Elmer, Wellesley, MA, USA). […] Following incubation, the proteins were excited at 280 nm, and we recorded the emission spectra from 310 to 500 nm with a scan speed of 150 nm/min using excitation and emission slits of 4 and 8 nm, respectively. The spectra of the blanks (buffer phosphate containing each of the compounds) were subtracted from all the obtained spectra that contained the protein, and the spectrum of the enzyme without the compound was used as control. The final spectrum for each compound was the average of five scans.

TvG6PD::6PGL [6] = biological target: T1, TvG6PD::6PGL; test: Intrinsic fluorescence of TvG6PD::6PGL with compounds; design: species or system T. vaginalis; details: compound at IC50 concentration, 2 h, 37 °C; native protein 673 a.u.
Description: as §5

[7] = test system: T. vaginalis trophozoites; test: Anti-T. vaginalis assay (trophozoite viability, trypan blue); assay type: cell-based; details: for reduction of T. vaginalis trophozoite viability at 6 µM / reduction of T. vaginalis trophozoite viability at 100 μM / IC50: 24 h; for reduction of T. vaginalis trophozoite viability at 100 μM: relative to negative control; for selectivity index (SI), T. vaginalis: Caco-2 CC50 relative to T. vaginalis IC50; for IC50: Trichomonas vaginalis, trophozoites, 37 °C
Description: The isolate T. vaginalis, Donne ATCC 30236 was axenically grown in trypticase–yeast extract–maltose (TYM) medium (pH 6.0), supplemented with 10% sterile horse serum (previously inactivated at 56 °C for 30 min), and incubated at 37 °C under microaerobic conditions. The trophozoites were axenically maintained, and a trypan blue (0.4%) exclusion assay was performed to ensure that the minimum viability of 95% and logarithmic growth phase were achieved before proceeding to the antiparasitic assay.
Drug susceptibility assays were performed to analyze the trichomonacidal potential of O2N-BZM7 and O2N-BZM9 compounds against T. vaginalis, as previously described. The compounds were diluted in dimethylsulfoxide (DMSO) as a vehicle for solubilization. […] Trophozoites were adjusted to an initial density of 2.6 × 10^5 trophozoites/mL of TYM medium. Then, 1.5 mL tubes were seeded with […] of T. vaginalis trophozoites/tubes (2.6 × 10^5 trophozoites/mL), O2N-BZM7 and O2N-BZM9 were added, and tubes were incubated at 37 °C with 5% CO2 for 24 h. After incubation, trophozoites were counted with trypan blue (0.4%) (1:1, v/v) on a Neubauer chamber to determine the trophozoites’ motility, morphology, and viability. Three controls were used in each assay: a negative control containing only trophozoites, a 0.06% DMSO control, and a positive control containing MTZ at 100 μM (Sigma-Aldrich, St. Louis, MO, USA). The IC50 was calculated using the GraphPad Prism 8.0 software Inc. version 8.0.2 (263) (San Diego, CA, USA).

G. lamblia [8] = test: In vitro antigiardial activity; assay type: cell-based; details: for selectivity index (SI), G. lamblia: Caco-2 CC50 relative to G. lamblia IC50
GlTIM = test system: GlTIM; design: method as in PMID 32882836; details: cited from earlier work; for IC50: read-out: IC50 TIM enzyme from G. lamblia
G. lamblia [9] = test system: G. lamblia; design: method as in PMID 32882836; details: previous study; cited from earlier work
Caco-2 cells = details: read-out: Caco-2 CC50, metronidazole; cited from earlier work

T2 sequence (A8BWM5 entry or part of it): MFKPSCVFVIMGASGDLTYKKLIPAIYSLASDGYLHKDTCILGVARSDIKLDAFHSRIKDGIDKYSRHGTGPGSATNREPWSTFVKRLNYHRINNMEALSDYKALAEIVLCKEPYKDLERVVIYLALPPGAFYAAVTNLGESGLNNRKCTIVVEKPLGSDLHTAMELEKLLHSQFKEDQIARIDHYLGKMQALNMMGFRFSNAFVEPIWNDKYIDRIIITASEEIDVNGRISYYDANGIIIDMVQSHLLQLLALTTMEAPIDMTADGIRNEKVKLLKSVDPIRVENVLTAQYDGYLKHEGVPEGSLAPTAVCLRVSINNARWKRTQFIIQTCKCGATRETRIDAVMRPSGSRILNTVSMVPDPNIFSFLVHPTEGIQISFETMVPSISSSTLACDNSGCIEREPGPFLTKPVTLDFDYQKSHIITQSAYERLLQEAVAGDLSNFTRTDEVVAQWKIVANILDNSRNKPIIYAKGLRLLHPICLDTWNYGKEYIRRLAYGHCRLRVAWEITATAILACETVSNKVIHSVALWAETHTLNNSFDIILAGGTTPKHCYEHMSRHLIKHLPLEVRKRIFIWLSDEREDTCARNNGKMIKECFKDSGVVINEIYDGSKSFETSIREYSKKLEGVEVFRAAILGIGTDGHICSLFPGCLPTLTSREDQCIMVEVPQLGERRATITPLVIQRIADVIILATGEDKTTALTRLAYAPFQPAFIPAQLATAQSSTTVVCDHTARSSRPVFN
T1 sequence (A2DBT5 entry or part of it): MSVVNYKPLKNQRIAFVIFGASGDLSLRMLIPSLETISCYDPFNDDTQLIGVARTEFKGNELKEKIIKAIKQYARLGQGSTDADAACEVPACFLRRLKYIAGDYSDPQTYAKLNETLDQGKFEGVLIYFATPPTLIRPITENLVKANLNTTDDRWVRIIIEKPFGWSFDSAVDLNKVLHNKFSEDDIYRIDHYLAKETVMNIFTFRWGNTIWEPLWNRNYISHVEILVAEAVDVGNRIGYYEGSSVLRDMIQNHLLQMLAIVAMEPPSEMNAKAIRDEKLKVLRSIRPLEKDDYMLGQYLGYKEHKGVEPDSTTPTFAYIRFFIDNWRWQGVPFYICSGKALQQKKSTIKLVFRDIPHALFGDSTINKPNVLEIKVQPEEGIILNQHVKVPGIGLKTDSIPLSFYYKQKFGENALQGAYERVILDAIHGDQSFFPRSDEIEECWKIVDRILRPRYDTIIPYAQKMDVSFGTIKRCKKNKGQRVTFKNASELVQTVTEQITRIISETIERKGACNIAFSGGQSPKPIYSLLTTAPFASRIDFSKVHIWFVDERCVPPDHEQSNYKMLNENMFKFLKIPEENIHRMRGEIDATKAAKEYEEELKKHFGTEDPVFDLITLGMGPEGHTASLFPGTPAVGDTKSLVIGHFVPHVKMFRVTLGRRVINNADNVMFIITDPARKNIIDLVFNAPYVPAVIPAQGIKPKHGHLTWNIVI

Compound: O=C(Nc1ccc(Cl)cc1)Nc1ncc([N+](=O)[O-])s1 [CNZ-3]
k2 for TvG6PD::6PGL protein, in-house library compounds (TvG6PD::6PGL [1]): 0.66 M⁻¹ s⁻¹

Compound: Cc1c(OCC(F)(F)F)ccnc1C[S+]([O-])c1nc2ccc(N)cc2[nH]1 (stereo not shown) [Compound H2N-BZM6, 2-{[3-methyl-4-(2,2,2-trifluoroethoxy)pyridin-2-yl]methanesulfinyl}-1H-benzimidazol-6-amine]
Inhibition (%) at 400 µM of GlG6PD::6PGL (GlG6PD::6PGL [2]): complete activity of the GlG6PD::6PGL enzyme was eradicated
inhibition at 400 µM (GlG6PD::6PGL [2]): 100 ± 5%
inhibition at 400 µM (TvG6PD::6PGL [3]): 12 ± 5%

Compound: O=[N+]([O-])c1ccc2nc([S+]([O-])Cc3ccccn3)[nH]c2c1 (stereo not shown) [Compound O2N-BZM7, 6-nitro-2-[(pyridin-2-yl)methanesulfinyl]-1H-benzimidazole]
Inhibition (%) at 400 µM of GlG6PD::6PGL (GlG6PD::6PGL [2]): complete activity of the GlG6PD::6PGL enzyme was eradicated
inhibition at 400 µM (GlG6PD::6PGL [2]): 100 ± 5%
kinact/KI (GlG6PD::6PGL [2]): 1.9 M⁻¹ s⁻¹
kinact/KI (TvG6PD::6PGL [3]): 0.85 M⁻¹ s⁻¹
change of secondary structure (CD spectra) of GlG6PD::6PGL (GlG6PD::6PGL [4]): did not induce alterations of the secondary structure
reduction of intrinsic fluorescence of GlG6PD::6PGL compared to control (GlG6PD::6PGL [5]): 62%
maximum intrinsic fluorescence intensity of GlG6PD::6PGL (GlG6PD::6PGL [5]): 329 a.u.
maximal intrinsic fluorescence intensity of TvG6PD::6PGL (TvG6PD::6PGL [6]): 415 a.u.
reduction of T. vaginalis trophozoite viability at 6 µM [7]: 52%
reduction of T. vaginalis trophozoite viability at 100 μM [7]: 100%
selectivity index (SI), T. vaginalis [7]: 106
IC50 [7]: 6 µM
selectivity index (SI), G. lamblia (G. lamblia [8]): 45
k2 for inactivation of GlTIM enzyme (GlTIM): 3.2 M⁻¹ s⁻¹
IC50 (GlTIM): 12 µM
IC50 (G. lamblia [9]): 14 µM

Compound: Cc1c(OCC(F)(F)F)ccnc1C[S+]([O-])c1nc2ccc([N+](=O)[O-])cc2[nH]1 (stereo not shown) [Compound O2N-BZM9, 2-{[3-methyl-4-(2,2,2-trifluoroethoxy)pyridin-2-yl]methanesulfinyl}-6-nitro-1H-benzimidazole]
IC50 (GlG6PD::6PGL [2]): 15 µM
Inhibition (%) at 400 µM of GlG6PD::6PGL (GlG6PD::6PGL [2]): complete activity of the GlG6PD::6PGL enzyme was eradicated
inhibition at 400 µM (GlG6PD::6PGL [2]): 100 ± 5%
kinact/KI (GlG6PD::6PGL [2]): 6.1 M⁻¹ s⁻¹
inhibition at 400 µM (TvG6PD::6PGL [3]): > 70%
kinact/KI (TvG6PD::6PGL [3]): 1.62 M⁻¹ s⁻¹
change of secondary structure (CD spectra) of GlG6PD::6PGL (GlG6PD::6PGL [4]): did not induce alterations of the secondary structure
reduction of intrinsic fluorescence of GlG6PD::6PGL compared to control (GlG6PD::6PGL [5]): 62%
maximum intrinsic fluorescence intensity of GlG6PD::6PGL (GlG6PD::6PGL [5]): 329 a.u.
maximal intrinsic fluorescence intensity of TvG6PD::6PGL (TvG6PD::6PGL [6]): 102 a.u.
reduction of T. vaginalis trophozoite viability at 6 µM [7]: 52%
reduction of T. vaginalis trophozoite viability at 100 μM [7]: 100%
selectivity index (SI), T. vaginalis [7]: 160
IC50 [7]: 4 µM
selectivity index (SI), G. lamblia (G. lamblia [8]): 39
k2 for inactivation of GlTIM enzyme (GlTIM): 2.8 M⁻¹ s⁻¹
IC50 (GlTIM): 20 µM
IC50 (G. lamblia [9]): 17 µM

Compound: [O-][S+](Cc1ccccn1)c1nc2ccccc2[nH]1 (stereo not shown) [H-BZM1, 2-[(pyridin-2-yl)methanesulfinyl]-1H-benzimidazole]
inhibition at 400 µM (GlG6PD::6PGL [2]): 62 ± 5%
inhibition at 400 µM (TvG6PD::6PGL [3]): 7 ± 5%

Compound: COc1c(C)cnc(C[S+]([O-])c2nc3ccccc3[nH]2)c1C (stereo not shown) [H-BZM2, 2-[(4-methoxy-3,5-dimethylpyridin-2-yl)methanesulfinyl]-1H-benzimidazole]
IC50 (GlG6PD::6PGL [2]): 24 µM
Inhibition (%) at 400 µM of GlG6PD::6PGL (GlG6PD::6PGL [2]): complete activity of the GlG6PD::6PGL enzyme was eradicated
inhibition at 400 µM (GlG6PD::6PGL [2]): 100 ± 5%
kinact/KI (GlG6PD::6PGL [2]): 3.3 M⁻¹ s⁻¹
inhibition at 400 µM (TvG6PD::6PGL [3]): 47 ± 5%
IC50 (GlTIM): 37 µM

Compound: O=C(COc1ccc(/C=C2\SC(=O)NC2=O)cc1)NC1CCN(Cc2ccccc2)CC1 [MCC-7]
k2 for TvG6PD::6PGL protein, in-house library compounds (TvG6PD::6PGL [1]): 0.26 M⁻¹ s⁻¹

IC50 [7]: 12 µM
IC50 (G. lamblia [8]; Giardia duodenalis, no reference given, read-out: G. lamblia IC50, metronidazole positive control): 4.8 µM
Compound: Cc1ncc([N+](=O)[O-])n1CCO [Metronidazole, reference compound]
selectivity index (SI), T. vaginalis [7]: 1.6
selectivity index (SI), G. lamblia (G. lamblia [8]): 3.9
CC50 (Caco-2 cells): 19 µM
